US20170051149A1, “AZOARYLS AS REVERSIBLY MODULATABLE TUBULIN INHIBITORS” (ECOLE NORMALE SUPERIEURE DE LYON, priority 2014, published 2017)

Tests used:
[1] = test system: HEK-293T cells; assay: MTT assay, light-dependent cell proliferation; assay type: cell-based; conditions: 72 h
[2] = photoisomerisation: photostationary state, calculated φ(λ) and E(λ), reversible cycling; assay type: physicochemical
Experimental: In a simple analysis of the PSS(λ) and E(λ), it was approximated that ΦEZ and ΦZE (the quantum efficiencies of the photoisomerisations trans->cis and cis->trans, respectively) are equal and independent of wavelength, and also that the kinetics of spontaneous reversion could be ignored (eg. high-intensity light source). A function φ(λ) was then calculated as per: […]
If ΦEZ and ΦZE are equal and independent of wavelength, φ(λ) gives the true PSS(λ). The wavelength independence of ΦEZ and ΦZE may be an acceptable approximation in regions of relatively strong absorption within the visible spectrum. Their equality may also be an acceptable assumption: since if ΦEZ and ΦZE are unequal but only depend weakly on wavelength in regions of relatively strong absorption, then φ(λ) is a transform of the true PSS(λ); this transform preserves the features of PSS(λ) which were most desired for evaluation in this study as long as ΦEZ and ΦZE are not too different (eg less than a factor of ten difference). Indeed, the calculated φ(λ) were later confirmed by in cellulo experiments to give reliable indications of favourable wavelengths for bulk trans->cis and bulk cis->trans photoisomerisation, which is the benchmark for a suitable analysis of the PSS(λ). The advantages of calculating φ(λ) rather than exhaustively measuring the PSS(λ) experimentally are that (a) the throughput is much faster, (b) the true PSS(λ) may be difficult to achieve at weakly-absorbing wavelengths or with fast-relaxing compounds, (c) the true PSS(λ) may be difficult to measure accurately at wavelengths where one isomer strongly dominates the sample even if both are relatively strongly absorbing, and (d) the variation of PSS(λ) with changes in the local biological microenvironment (polarity, pH etc) may anyway be larger than the error incurred by the assumption φ(λ)═PSS(λ).
Also following the assumption that ΦEZ and ΦZE are equal and independent of wavelength, a photoisomerisation efficiency E(λ) was calculated as per:
E(λ)=[εE(λ)+εZ(λ)]/[εE(390)+εZ(390)]
Larger values of E(λ) therefore denote higher efficiency photoisomerisation (less photon flux is required to approach the PSS(λ)). E(λ) was parametrised to the absorption coefficients at 390 nm, since typically that wavelength gave satisfactorily strong absorption and efficient photoisomerisation. It should be noted that E(λ) are not intercomparable between different compounds. This reflects the realistic scenario that the ΦEZ (or the ΦZE) of two arbitrarily chosen compounds may differ by a significant amount, even if the approximation that ΦEZ and ΦZE are equal and independent of wavelength applies independently to each compound.
A(λstrong) was measured over time in the UV-Vis cuvette in non-degassed PBS left open to the atmosphere, […], at 37° C., while the monochromator was used to apply λirrad alternating between two values λ1 and λ2, chosen to induce net trans->cis and net cis->trans isomerisation respectively. Typical results are presented for compound I.1 (FIG. 3). The absorbance of I.1 (18 μM) was measured at λstrong=378 nm, while the irradiating wavelength was held alternately at λ1=388 nm (50 s; bulk trans->cis) then λ2=508 nm (180 s, bulk cis->trans). Higher absorbance corresponds to a greater amount of trans isomer: an absorbance of 0.27 here corresponds to an approximately 5:1 ratio of trans:cis isomer in the sample, and an absorbance of 0.12 here corresponds to an approximately 1:2 ratio of trans:cis isomer in the sample. […] Typically, compounds of the invention could be bulk-photoisomerised hundreds of times over a timescale of hours (50 representative cycles are shown in FIG. 3 for I.1), such that the majority species in a sample was photocontrollably alternated between the trans-isomer and the cis-isomer. […]

In the case of `COc1ccc(N=Nc2cc(OC)c(OC)c(OC)c2)cc1O` [I.1, 2-methoxy-5-((3,4,5-trimethoxyphenyl)diazenyl)phenol], the “fold growth relative to cosolvent control (MTT)” value ([1]; 100 nM, 390 nm, 0.35 s every 2 min) is reported as 1.31, the “fold growth relative to cosolvent control (MTT)” value ([1]; 100 nM, 390 nm, 0.35s then 490 nm, 3 s (rescue) every 2 min) is reported as 1.26 and the “fold growth relative to cosolvent control (MTT)” value ([1]; 100 nM, 410 nm, 0.35 s every 2 min) is reported as 1.19. The “fold growth relative to cosolvent control (MTT)” value ([1]; 100 nM, 410 nm, 0.35 s then 505 nm, 3 s (rescue) every 2 min) was 1.29, the “fold growth relative to cosolvent control (MTT)” value ([1]; 100 nM, 475 nm, 3 s every 2 min) was 1.11 and the “fold growth relative to cosolvent control (MTT)” value ([1]; 100 nM, 490 nm, 3 s every 2 min) was 1.10. The “fold growth relative to cosolvent control (MTT)” value ([1]; 100 nM, 505 nm, 3 s every 2 min) was 1.22, the “fold growth relative to cosolvent control (MTT)” value ([1]; 100 nM, 525 nm, 3 s every 2 min) was 1.12 and the “fold growth relative to cosolvent control (MTT)” value ([1]; 100 nM, Dark) was 1.29. For the same molecule, the “fold growth relative to cosolvent control (MTT)” value ([1]; 400 nM, 390 nm, 0.35 s every 2 min) was 0.67, the “fold growth relative to cosolvent control (MTT)” value ([1]; 400 nM, 390 nm, 0.35s then 490 nm, 3 s (rescue) every 2 min) was 0.69 and the “fold growth relative to cosolvent control (MTT)” value ([1]; 400 nM, 410 nm, 0.35 s every 2 min) was 0.70. The “fold growth relative to cosolvent control (MTT)” value ([1]; 400 nM, 410 nm, 0.35 s then 505 nm, 3 s (rescue) every 2 min) was 0.86, the “fold growth relative to cosolvent control (MTT)” value ([1]; 400 nM, 475 nm, 3 s every 2 min) was 0.55 and the “fold growth relative to cosolvent control (MTT)” value ([1]; 400 nM, 490 nm, 3 s every 2 min) was 0.69. The “fold growth relative to cosolvent control (MTT)” value ([1]; 400 nM, 505 nm, 3 s every 2 min) was 0.87, the “fold growth relative to cosolvent control (MTT)” value ([1]; 400 nM, 525 nm, 3 s every 2 min) was 0.82 and the “fold growth relative to cosolvent control (MTT)” value ([1]; 400 nM, Dark) was 0.87. For the same molecule, the “fold growth relative to cosolvent control (MTT)” value ([1]; 800 nM, 390 nm, 0.35 s every 2 min) was 0.38, the “fold growth relative to cosolvent control (MTT)” value ([1]; 800 nM, 390 nm, 0.35s then 490 nm, 3 s (rescue) every 2 min) was 0.33 and the “fold growth relative to cosolvent control (MTT)” value ([1]; 800 nM, 410 nm, 0.35 s every 2 min) was 0.51. The “fold growth relative to cosolvent control (MTT)” value ([1]; 800 nM, 410 nm, 0.35 s then 505 nm, 3 s (rescue) every 2 min) was 0.67, the “fold growth relative to cosolvent control (MTT)” value ([1]; 800 nM, 475 nm, 3 s every 2 min) was 0.37 and the “fold growth relative to cosolvent control (MTT)” value ([1]; 800 nM, 490 nm, 3 s every 2 min) was 0.43. The “fold growth relative to cosolvent control (MTT)” value ([1]; 800 nM, 505 nm, 3 s every 2 min) was 0.92, the “fold growth relative to cosolvent control (MTT)” value ([1]; 800 nM, 525 nm, 3 s every 2 min) was 1.00 and the “fold growth relative to cosolvent control (MTT)” value ([1]; 800 nM, Dark) was 0.95. The “fold growth relative to cosolvent control (MTT)” value ([1]; 1.5 μM, 390 nm, 0.35 s every 2 min) was 0.22, the “fold growth relative to cosolvent control (MTT)” value ([1]; 1.5 μM, 390 nm, 0.35s then 490 nm, 3 s (rescue) every 2 min) was 0.18 and the “fold growth relative to cosolvent control (MTT)” value ([1]; 1.5 μM, 410 nm, 0.35 s every 2 min) was 0.25. For the same molecule, the “fold growth relative to cosolvent control (MTT)” value ([1]; 1.5 μM, 410 nm, 0.35 s then 505 nm, 3 s (rescue) every 2 min) was 0.25, the “fold growth relative to cosolvent control (MTT)” value ([1]; 1.5 μM, 475 nm, 3 s every 2 min) was 0.19 and the “fold growth relative to cosolvent control (MTT)” value ([1]; 1.5 μM, 490 nm, 3 s every 2 min) was 0.19. The “fold growth relative to cosolvent control (MTT)” value ([1]; 1.5 μM, 505 nm, 3 s every 2 min) was 0.42, the “fold growth relative to cosolvent control (MTT)” value ([1]; 1.5 μM, 525 nm, 3 s every 2 min) was 0.66 and the “fold growth relative to cosolvent control (MTT)” value ([1]; 1.5 μM, Dark) was 0.71. The “fold growth relative to cosolvent control (MTT)” value ([1]; 3 μM, 390 nm, 0.35 s every 2 min) was 0.17, the “fold growth relative to cosolvent control (MTT)” value ([1]; 3 μM, 390 nm, 0.35s then 490 nm, 3 s (rescue) every 2 min) was 0.14 and the “fold growth relative to cosolvent control (MTT)” value ([1]; 3 μM, 410 nm, 0.35 s every 2 min) was 0.18. For the same molecule, the “fold growth relative to cosolvent control (MTT)” value ([1]; 3 μM, 410 nm, 0.35 s then 505 nm, 3 s (rescue) every 2 min) was 0.22, the “fold growth relative to cosolvent control (MTT)” value ([1]; 3 μM, 475 nm, 3 s every 2 min) was 0.15 and the “fold growth relative to cosolvent control (MTT)” value ([1]; 3 μM, 490 nm, 3 s every 2 min) was 0.20. The “fold growth relative to cosolvent control (MTT)” value ([1]; 3 μM, 505 nm, 3 s every 2 min) was 0.27, the “fold growth relative to cosolvent control (MTT)” value ([1]; 3 μM, 525 nm, 3 s every 2 min) was 0.64 and the “fold growth relative to cosolvent control (MTT)” value ([1]; 3 μM, Dark) was 0.66. The “fold growth relative to cosolvent control (MTT)” value ([1]; 6 μM, 390 nm, 0.35 s every 2 min) was 0.29, the “fold growth relative to cosolvent control (MTT)” value ([1]; 6 μM, 390 nm, 0.35s then 490 nm, 3 s (rescue) every 2 min) was 0.18 and the “fold growth relative to cosolvent control (MTT)” value ([1]; 6 μM, 410 nm, 0.35 s every 2 min) was 0.23. The “fold growth relative to cosolvent control (MTT)” value ([1]; 6 μM, 410 nm, 0.35 s then 505 nm, 3 s (rescue) every 2 min) was 0.30, the “fold growth relative to cosolvent control (MTT)” value ([1]; 6 μM, 475 nm, 3 s every 2 min) was 0.21 and the “fold growth relative to cosolvent control (MTT)” value ([1]; 6 μM, 490 nm, 3 s every 2 min) was 0.34. For the same molecule, the “fold growth relative to cosolvent control (MTT)” value ([1]; 6 μM, 505 nm, 3 s every 2 min) was 0.27, the “fold growth relative to cosolvent control (MTT)” value ([1]; 6 μM, 525 nm, 3 s every 2 min) was 0.39 and the “fold growth relative to cosolvent control (MTT)” value ([1]; 6 μM, Dark) was 0.80. The “fold growth relative to cosolvent control (MTT)” value ([1]; 15 μM, 390 nm, 0.35 s every 2 min) was 0.28, the “fold growth relative to cosolvent control (MTT)” value ([1]; 15 μM, 390 nm, 0.35s then 490 nm, 3 s (rescue) every 2 min) was 0.21 and the “fold growth relative to cosolvent control (MTT)” value ([1]; 15 μM, 410 nm, 0.35 s every 2 min) was 0.23. For the same molecule, the “fold growth relative to cosolvent control (MTT)” value ([1]; 15 μM, 410 nm, 0.35 s then 505 nm, 3 s (rescue) every 2 min) was 0.24, the “fold growth relative to cosolvent control (MTT)” value ([1]; 15 μM, 475 nm, 3 s every 2 min) was 0.17 and the “fold growth relative to cosolvent control (MTT)” value ([1]; 15 μM, 490 nm, 3 s every 2 min) was 0.31. For the same molecule, the “fold growth relative to cosolvent control (MTT)” value ([1]; 15 μM, 505 nm, 3 s every 2 min) was 0.20, the “fold growth relative to cosolvent control (MTT)” value ([1]; 15 μM, 525 nm, 3 s every 2 min) was 0.29 and the “fold growth relative to cosolvent control (MTT)” value ([1]; 15 μM, Dark) was 0.87. For the same molecule, the “E(388)/E(508)” value [2] was 0.04, the “E(λ)” value ([2]; 390 nm) was 1.00 and the “% cis after photoisomerisation from all-trans” value ([2]; 390 nm light) was “approx. 90%”. The “E(λ)” value ([2]; 410 nm) was 0.59, the “% cis after photoisomerisation from all-trans” value ([2]; 450 nm light) was “approx. 50%” and the “E(λ)” value ([2]; 475 nm) was 0.14. The “E(λ)” value ([2]; 490 nm) was 0.08, the “E(λ)” value ([2]; 505 nm) was 0.04 and the “E(λ)” value ([2]; 525 nm) was 0.02. The “φ(490)” value ([2]; calculated from εE and εZ) was 0.30, the “φ(505)” value ([2]; calculated from εE and εZ) was 0.23 and the “% cis after subsequent irradiation” value ([2]; subsequent 505 nm light) was “approx. 20%”.
